The target in assay [1] is Kappa-type opioid receptor (Homo sapiens, UniProt P41145). Description: Agonist activity at human recombinant kappa opioid receptor expressed in rat RBL cells assessed as stimulation of intracellular calcium levels incubated at room temperature by fluorimetry. In kind it is functional, cell-based. (Calcium assays in cells follow changes in intracellular calcium, usually with a dye or a luminescent sensor.)

Assay [2] relates to Rattus norvegicus. Put plainly: Antinociceptive activity in Sprague-Dawley rat dosed intravenously using cumulative dosing every 5 mins until rat maxed-out on hot plate by hot plate test relative to control. The class given is functional. (In general: Thermal pain tests record how soon the animal reacts.)
Assay [3] has as its system Rattus norvegicus. Description: Antinociceptive activity in Sprague-Dawley rat dosed intravenously using cumulative dosing every 5 mins until rat maxed-out on hot plate co-treated with 0.1 mg/kg naltrexone by hot plate test. The class given is functional, organism-based.
For assay [4], the target named is T1, Alpha-2A adrenergic receptor (Homo sapiens) (UniProt P08913).
T1 sequence (whole entry): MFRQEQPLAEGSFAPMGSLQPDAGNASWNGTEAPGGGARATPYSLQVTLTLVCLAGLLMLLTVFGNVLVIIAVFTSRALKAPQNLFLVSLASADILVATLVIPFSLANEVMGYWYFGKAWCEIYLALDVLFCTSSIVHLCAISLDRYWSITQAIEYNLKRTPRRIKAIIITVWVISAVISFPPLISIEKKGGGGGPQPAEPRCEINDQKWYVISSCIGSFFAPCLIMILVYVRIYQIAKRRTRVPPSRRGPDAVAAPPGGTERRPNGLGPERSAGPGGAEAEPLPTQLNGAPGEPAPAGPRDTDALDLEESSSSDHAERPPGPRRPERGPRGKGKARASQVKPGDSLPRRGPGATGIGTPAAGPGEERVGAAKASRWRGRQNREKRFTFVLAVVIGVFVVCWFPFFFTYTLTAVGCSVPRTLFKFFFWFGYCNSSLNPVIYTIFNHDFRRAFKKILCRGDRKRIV
Conditions: CHO, 100 nM.

Assay [5] deals with T2, Alpha-2B adrenergic receptor (Homo sapiens) (UniProt P18089).
T2 sequence (whole entry): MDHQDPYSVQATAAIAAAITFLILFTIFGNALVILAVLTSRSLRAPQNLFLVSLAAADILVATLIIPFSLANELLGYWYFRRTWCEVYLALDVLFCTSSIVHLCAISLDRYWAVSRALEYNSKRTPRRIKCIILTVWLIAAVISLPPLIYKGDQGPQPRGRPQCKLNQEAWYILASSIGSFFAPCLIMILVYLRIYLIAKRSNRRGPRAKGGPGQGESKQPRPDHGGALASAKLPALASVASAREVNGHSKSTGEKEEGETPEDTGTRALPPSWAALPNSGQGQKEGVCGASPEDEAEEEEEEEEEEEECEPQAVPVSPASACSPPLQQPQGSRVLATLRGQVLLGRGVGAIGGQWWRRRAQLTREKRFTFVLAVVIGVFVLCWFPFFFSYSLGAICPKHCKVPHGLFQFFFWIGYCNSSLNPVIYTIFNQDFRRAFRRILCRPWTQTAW
The note with it: CHO, 100 nM.

Assay [6] has as its target T3, Alpha-1D adrenergic receptor (Homo sapiens) (UniProt P25100).
T3 sequence (whole entry): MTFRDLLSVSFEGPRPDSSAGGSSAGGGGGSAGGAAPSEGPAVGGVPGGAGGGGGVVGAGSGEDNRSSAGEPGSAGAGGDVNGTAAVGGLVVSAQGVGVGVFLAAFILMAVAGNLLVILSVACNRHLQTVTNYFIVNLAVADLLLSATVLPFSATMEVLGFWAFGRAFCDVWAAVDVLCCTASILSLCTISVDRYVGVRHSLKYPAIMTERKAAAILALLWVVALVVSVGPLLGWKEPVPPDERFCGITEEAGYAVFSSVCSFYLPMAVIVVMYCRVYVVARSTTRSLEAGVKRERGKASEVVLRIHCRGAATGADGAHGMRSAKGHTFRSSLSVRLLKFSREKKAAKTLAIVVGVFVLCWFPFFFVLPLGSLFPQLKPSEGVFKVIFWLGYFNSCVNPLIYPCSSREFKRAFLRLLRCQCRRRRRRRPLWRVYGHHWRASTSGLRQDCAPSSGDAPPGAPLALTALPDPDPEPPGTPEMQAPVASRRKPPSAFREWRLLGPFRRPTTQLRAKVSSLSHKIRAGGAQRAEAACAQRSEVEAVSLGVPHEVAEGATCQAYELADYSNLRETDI
The note with it: CHO, 10000 nM.

In assay [7] the target is T1, Alpha-2A adrenergic receptor (Homo sapiens). Conditions: CHO, 10000 nM.
The target of assay [8] is T4, Alpha-2B adrenergic receptor (Homo sapiens, UniProt P18089).
T4 sequence (P18089 whole entry): T2 sequence (whole entry)
Description: biochemical. The class given is cell-based, CHO.

The target in assay [9] is T5, Alpha-1A adrenergic receptor (Homo sapiens) (UniProt P35348).
T5 sequence (whole entry): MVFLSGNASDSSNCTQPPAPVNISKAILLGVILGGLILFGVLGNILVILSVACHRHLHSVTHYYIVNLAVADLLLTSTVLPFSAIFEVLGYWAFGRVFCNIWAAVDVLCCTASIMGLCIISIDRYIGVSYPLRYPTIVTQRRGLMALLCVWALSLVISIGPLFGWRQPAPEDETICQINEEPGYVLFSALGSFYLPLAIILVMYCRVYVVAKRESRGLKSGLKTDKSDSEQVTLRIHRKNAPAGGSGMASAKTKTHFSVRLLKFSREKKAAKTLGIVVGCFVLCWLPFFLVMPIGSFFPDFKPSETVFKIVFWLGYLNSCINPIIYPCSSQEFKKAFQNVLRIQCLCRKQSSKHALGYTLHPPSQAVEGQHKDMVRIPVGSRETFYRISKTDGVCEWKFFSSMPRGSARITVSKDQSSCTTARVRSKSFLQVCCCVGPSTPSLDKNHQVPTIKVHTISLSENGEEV
Put plainly: Partial agonist activity at human recombinant adrenergic alpha-1A receptor expressed in CHO cells assessed as stimulation of intracellular calcium levels incubated at room temperature by fluorimetry. The class given is functional, cell-based.

Assay [10] has as its target T3, Alpha-1D adrenergic receptor (Homo sapiens). Description: Partial agonist activity at human recombinant adrenergic alpha-1D receptor expressed in rat RBL cells assessed as stimulation of intracellular calcium levels incubated at room temperature by fluorimetry. The class given is functional, cell-based.
The target of assay [11] is Nociceptin receptor (Homo sapiens) (UniProt P41146). The note with it: 100 nM.
Chain of Nociceptin receptor (Homo sapiens) (P41146 whole entry): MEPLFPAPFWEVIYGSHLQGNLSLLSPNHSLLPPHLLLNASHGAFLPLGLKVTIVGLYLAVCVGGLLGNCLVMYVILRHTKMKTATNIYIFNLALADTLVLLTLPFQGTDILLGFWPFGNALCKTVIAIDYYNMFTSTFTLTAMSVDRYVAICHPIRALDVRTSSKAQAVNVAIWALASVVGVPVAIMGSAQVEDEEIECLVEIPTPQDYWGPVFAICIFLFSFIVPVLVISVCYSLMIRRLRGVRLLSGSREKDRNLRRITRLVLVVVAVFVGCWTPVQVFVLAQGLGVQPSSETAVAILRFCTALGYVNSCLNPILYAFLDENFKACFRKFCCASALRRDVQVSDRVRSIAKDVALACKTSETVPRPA

Molecules are shown by their SMILES. Calls of active or inactive are those of the source. No cut-off for these calls is given here.

The values below come from ChEMBL document CHEMBL4376854, “Investigation of the Adrenergic and Opioid Binding Affinities, Metabolic Stability, Plasma Protein Binding Properties, and Functional Effects of Selected Indole-Based Kratom Alkaloids” (J Med Chem, 2020).

By inhibition is commonly meant the relative decrease from the control value, in per cent. What is called Ki is the dissociation constant of the complex between target and ligand, obtained from inhibition or displacement. Lower therefore signals higher affinity. The term Emax denotes the size of the effect at its maximum, as opposed to the concentration needed.

Chain of Kappa-type opioid receptor (P41145 whole entry): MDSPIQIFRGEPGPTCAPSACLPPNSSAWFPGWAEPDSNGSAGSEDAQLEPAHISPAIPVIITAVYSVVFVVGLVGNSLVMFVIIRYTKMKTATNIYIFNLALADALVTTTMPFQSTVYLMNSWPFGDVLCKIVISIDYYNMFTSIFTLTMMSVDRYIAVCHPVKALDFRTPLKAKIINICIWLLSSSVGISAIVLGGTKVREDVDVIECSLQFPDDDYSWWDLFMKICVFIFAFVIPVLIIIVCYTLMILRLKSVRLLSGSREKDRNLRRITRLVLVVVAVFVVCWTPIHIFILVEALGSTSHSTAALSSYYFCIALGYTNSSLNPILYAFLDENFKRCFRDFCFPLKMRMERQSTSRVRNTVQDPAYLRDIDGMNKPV

Regarding `CC[C@@H]1CN2CCc3c([nH]c4cccc(OC)c34)[C@H]2C[C@@H]1/C(=C\OC)C(=O)OC`, the result (in [1]; in the assay on Rattus norvegicus [3]) was inactive. In the assay on Rattus norvegicus [2], this compound gave an MPE of 100%. Also, the inhibition was 7% in assay [4], 0% in assay [5], 70.5% in [6] and 73.1% in assay [7].

Compound `CC[C@@H]1CN2CCc3c([nH]c4cccc(OC)c34)[C@@H]2C[C@@H]1/C(=C\OC)C(=O)OC` registered a Ki in [8] of 9.29 µM. In addition, the result in assay [9] and in assay [10] was Active. Also, the Emax with Rattus norvegicus [2] (Rattus norvegicus, Sprague-Dawley, iv, 5 min) was determined as 17.3%. Further, in the assay on Rattus norvegicus [3], the result was inactive. Besides, the inhibition in assay [4] was -8%; in assay [11] it was 4.3%; in assay [6], 57.9%; in [7], 40.4%.
